In PMC3787718 (Structure (London, England : 1993), 2013):

Target: T1, GLIC (Gloeobacter violaceus ligand-gated ion channel) (Gloeobacter violaceus, UniProt Q7NDN8)
T1 sequence (Q7NDN8 44-359): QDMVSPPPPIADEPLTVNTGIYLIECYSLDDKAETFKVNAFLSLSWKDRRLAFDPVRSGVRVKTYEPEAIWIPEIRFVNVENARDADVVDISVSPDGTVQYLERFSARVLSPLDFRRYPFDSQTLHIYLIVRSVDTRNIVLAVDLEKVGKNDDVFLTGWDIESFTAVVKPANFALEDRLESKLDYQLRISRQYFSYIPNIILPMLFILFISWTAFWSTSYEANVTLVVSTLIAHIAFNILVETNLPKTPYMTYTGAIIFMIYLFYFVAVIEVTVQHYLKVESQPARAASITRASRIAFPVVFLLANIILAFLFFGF
Assay: two-electrode voltage clamp in Xenopus oocytes, inhibition of proton-activated
Type: cell-based

## FC(F)OC(F)C(F)(F)F (stereo not shown) [DSF, desflurane]
  IC50: 1.1 mM
